We go through 19 compounds from paper PMC12999171 (eLife, 2026).

For one assay, the target named is iGABASnFR2n (Pseudomonas fluorescens, UniProt A0A1B3D787, F126L/F129H/N285A/S124A). Put plainly: biochemical. The assay is classed as binding.
Another assay deals with iGABASnFR1 (Pseudomonas fluorescens, UniProt A0A1B3D787, F126L/N285A). Put plainly: biochemical. It counts as binding.
Chain of iGABASnFR1 (A0A1B3D787 27-341, stated change not applied): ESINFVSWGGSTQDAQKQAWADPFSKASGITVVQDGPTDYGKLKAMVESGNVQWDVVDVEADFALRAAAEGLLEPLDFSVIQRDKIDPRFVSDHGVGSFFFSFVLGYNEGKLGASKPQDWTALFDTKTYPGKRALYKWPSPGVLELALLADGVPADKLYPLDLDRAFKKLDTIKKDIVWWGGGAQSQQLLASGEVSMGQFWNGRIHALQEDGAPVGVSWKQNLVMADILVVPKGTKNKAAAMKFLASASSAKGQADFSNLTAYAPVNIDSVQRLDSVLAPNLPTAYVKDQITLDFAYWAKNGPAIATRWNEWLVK
Chain of iGABASnFR1 (P42212 with tags, fused parts or gaps S30R/Y39N/F64L/F99S/N105T/Y145W partner): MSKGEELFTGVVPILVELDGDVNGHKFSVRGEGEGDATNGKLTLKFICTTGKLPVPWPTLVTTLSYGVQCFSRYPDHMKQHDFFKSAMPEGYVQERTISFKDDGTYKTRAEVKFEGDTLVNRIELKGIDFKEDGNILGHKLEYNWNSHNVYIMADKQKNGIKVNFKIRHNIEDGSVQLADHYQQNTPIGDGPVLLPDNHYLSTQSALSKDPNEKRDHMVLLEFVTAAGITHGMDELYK

Chain of iGABASnFR2n (A0A1B3D787 27-341, stated change not applied): as the sequence (A0A1B3D787 27-341, stated change not applied) above
Chain of iGABASnFR2n (P42212 whole entry Y145W/R168P partner): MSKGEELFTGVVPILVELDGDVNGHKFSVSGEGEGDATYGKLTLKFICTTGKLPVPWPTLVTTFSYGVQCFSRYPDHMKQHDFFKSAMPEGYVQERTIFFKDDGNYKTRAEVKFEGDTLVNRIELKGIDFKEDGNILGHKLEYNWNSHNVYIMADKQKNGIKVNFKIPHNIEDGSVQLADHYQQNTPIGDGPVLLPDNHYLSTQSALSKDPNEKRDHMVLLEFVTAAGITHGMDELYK
Excerpt for iGABASnFR1: (§1) The fluorescence data was fitted to the Hill function in GraphPad Prism to determine affinity values.
Excerpt for iGABASnFR2n: as §1

On to `CN1CCc2cc3c(cc2[C@H]1[C@@H]1OC(=O)c2c1ccc1c2OCO1)OCO3` [bicuculline, reference compound], for which the concentration for a half-maximal effect (EC50) at iGABASnFR2n came out at 9000 µM.

Turning to `C[C@H](N)C(=O)O` [alanine], the EC50 worked out at 1710 µM at iGABASnFR1 and 582 µM on iGABASnFR2n.

As for `NC(=O)C[C@H](N)C(=O)O` [asparagine], the EC50 on iGABASnFR1 turned out to be 8490 µM; on iGABASnFR2n, 5500 µM.

On to `NCc1cc(=O)[nH]o1` [muscimol, reference compound], for which the figures for the half-maximal effective concentration (EC50) at iGABASnFR1 and at iGABASnFR2n were 5.81 µM and 2.62 µM, respectively.

On iGABASnFR2n, `O=C(O)[C@@H]1CCCN1` [proline] returned a half-maximal effective concentration (EC50) of 2490 µM.

`NCC(CC(=O)O)c1ccc(Cl)cc1` (centres unmarked) [baclofen, reference compound]: the EC50 at iGABASnFR1 came to 7380 µM; at iGABASnFR2n, 6.3 µM.

For `NCCc1c[nH]cn1` [histamine], on iGABASnFR2n, the concentration giving a half-maximal response (EC50) amounted to 9000 µM.

For the compound `N[C@@H](CO)C(=O)O` [serine], the EC50 at iGABASnFR1 came out at 50.9 µM; on iGABASnFR2n it was 5520 µM.

For `CC(C)[C@H](N)C(=O)O` [valine], the results for the EC50 on iGABASnFR1 and at iGABASnFR2n were 1.34 µM and 1.47 µM, respectively.

For the compound `N[C@@H](Cc1ccccc1)C(=O)O` [phenylalanine], the EC50 on iGABASnFR1 stood at 3.71 µM; on iGABASnFR2n, 1150 µM.

On to `N[C@@H](Cc1c[nH]c2ccccc12)C(=O)O` [tryptophan], for which, on iGABASnFR2n, a half-maximal response (EC50) required 0.396 µM.

The compound `Cc1ccsc1C(=CCCN1CCC[C@@H](C(=O)O)C1)c1sccc1C` [tiagabine, reference compound] came in with a half-maximal effective concentration (EC50) on iGABASnFR2n of 2230 µM.

Take `C=CC(N)CCC(=O)O` (centres unmarked) [vigabatrin, reference compound]: the EC50 on iGABASnFR1 stood at 5430 µM. In other words, the millimolar range.

With `N[C@@H](CC(=O)O)C(=O)O` [aspartate], the figures for the concentration for a half-maximal effect (EC50) at iGABASnFR1 and at iGABASnFR2n were 2.39 µM and 0.526 µM, respectively.

With `CC[C@H](C)[C@H](N)C(=O)O` [isoleucine], the 50% effective concentration (EC50) at iGABASnFR1 is 2.45 µM; at iGABASnFR2n it was 111 µM.

On to `C[C@@H](O)[C@H](N)C(=O)O` [threonine], for which the EC50 was found to be 19.9 µM at iGABASnFR1 and 9000 µM on iGABASnFR2n.

On to `CSCC[C@H](N)C(=O)O` [methionine], for which the EC50 is 0.419 µM at iGABASnFR1 and 9000 µM at iGABASnFR2n.

As for `NCCCC[C@H](N)C(=O)O` [lysine], the EC50 came out at 77.5 µM at iGABASnFR1 and 741 µM on iGABASnFR2n.

Turning to `N=C(N)NCCC[C@H](N)C(=O)O` [arginine], the EC50 at iGABASnFR1 turned out to be 59 µM; at iGABASnFR2n, 3.35 µM.
